“And” between values parts separate entries of the source, which are not always exact repeats. Equal entries are not always repeated. Where two headings read alike, the source gives them in different places.
Assay: Half-life of ADR destruction by UVA light in the presence of test compounds (decrease in absorbance at 480 nm)
Assay type: physicochemical
[1] = UVA light, 100 μM test compound alone
[2] = UVA light, 100 μM test compound with 0.5 μM riboflavin

SMILES	Half-Life of ADR Destruction, 100 μM Test Compound [1] [min]	Half-Life of ADR Destruction, 100 μM Test Compound and 0.5 μM Riboflavin [2]	Half-Life of ADR Destruction, 100 μM Test Compound and 0.5 μM Riboflavin [min]	Half-Life of ADR Destruction, 100 μM Test Compound [min]
COc1ccc(CCO)cc1 [4-Methoxy Phenylethyl Alcohol]	43.0	5.47 min		
COc1ccc(C=O)c2ccccc12 [4-Methoxy-1-naphthaldehyde]	1.15	1.19 min		
COc1ccc(C=C(C)C=O)cc1 [4-Methoxy-α-Methyl Cinnamaldehyde]		20.1 min		
CCC(=O)c1ccc(OC)cc1 [4-Methoxypropriophenone]			30.1	
Cc1cccc2[nH]ccc12 [4-Methyl Indole]		18.7 ± 4.0 min		
O=C(O)c1ccc([N+](=O)[O-])cc1 [4-Nitro Benzoic Acid]		50.2 min		
CCCCCc1ccc(N)cc1 [4-Pentyl Aniline]		4.12 min		
Nc1ccc(Oc2ccccc2)cc1 [4-Phenoxyaniline]	75.3	15.1 min		
O=C(O)c1ccc(-c2ccccc2)cc1 [4-Phenyl Benzoic Acid]	43.0			
O=C(O)CCCc1ccccc1 [4-Phenyl Butyric Acid]	43.0	33.5 min		
O=C(O)Cc1ccc(-c2ccccc2)cc1 [4-Phenyl Phenylacetic Acid]	43.0	27.4 min		
CC(C(=O)O)c1ccc(-c2ccccc2)cc1 (stereo not drawn) [4-Phenyl α-Methyl-Phenylacetic Acid]		27.4 min		
OCCCCc1ccccc1 [4-Phenyl-1-Butanol]	43.0	43.0 min		
CCCc1ccc(N)cc1 [4-Propyl Aniline]		7.34 min		
CC(C)(C)c1ccc(N)cc1 [4-tert-Butyl Aniline]		27.4 min		
CC(=O)c1ccc(O)cc1 [4′-Hydroxyacetophenone]	50.2	50.2 min		
COc1ccc(C(C)=O)cc1 [4′-Methoxyacetophenone]		33.4 min		
COc1cc(OC)c2ccc(=O)oc2c1 [5,7-Dimethoxycoumarin]	27.4	23.2 min		
Nc1ccc2[nH]ccc2c1 [5-Amino Indole]		100.3 min		
Nc1cccc2cc(S(=O)(=O)O)ccc12 [5-Amino-2-naphthalenesulfonic acid]	50.2			

SMILES	Half-Life of ADR Destruction, 100 μM Test Compound [1] [min]	Half-Life of ADR Destruction, 100 μM Test Compound and 0.5 μM Riboflavin [2]	Half-Life of ADR Destruction, 100 μM Test Compound and 0.5 μM Riboflavin [min]	Half-Life of ADR Destruction, 100 μM Test Compound [min]
O=C(O)C1=CC=C2N=NN=C2C1 [5-Benzotriazole-carboxylic acid]		75.3 min		
O=C(Oc1ccc2[nH]ccc2c1)c1ccccc1 [5-Benzoyloxy Indole]		43.0 min		
Oc1ccc2[nH]ccc2c1 [5-Hydroxy Indole]		150.5 min and 75.3 min		
N[C@@H](Cc1c[nH]c2ccc(O)cc12)C(=O)O [5-Hydroxy-tryptophan]		301.0 min		
O=C(O)Cc1c[nH]c2ccc(O)cc12 [5-Hydroxyindole-3-acetic acid]		150.5 min		
COc1ccc2[nH]ccc2c1 [5-Methoxy Indole]		25.1 min and 14.3 min		
COc1ccc2[nH]c(C)cc2c1 [5-Methoxy-2-methyl Indole]			7.00	27.4
COc1ccc2[nH]c(C)c(CC(=O)O)c2c1 [5-Methoxy-2-methylindole-3-acetic acid]	25.1	4.78 min		
COc1ccc2[nH]cc(CCO)c2c1 [5-Methoxy-3-indoleethanol]	33.5	9.12 min		
COc1ccc2[nH]cc(C[C@H](N)C(=O)O)c2c1 [5-Methoxy-tryptophan]		21.5 min		
COc1ccc2[nH]cc(CC(=O)O)c2c1 [5-Methoxyindole-3-acetic acid]	17.7	3.67 min		
Cc1ccc2[nH]ccc2c1 [5-Methyl Indole]		8.85 min		
Cc1ccc2[nH]cc(C[C@H](N)C(=O)O)c2c1 [5-Methyl-tryptophan]		23.2 min		
COc1cc2ccc(=O)oc2cc1OC [6,7-Dimethoxycoumarin]	21.5			
Nc1ccc2cc(S(=O)(=O)O)cc(O)c2c1 [6-Amino-4-hydroxy-2-naphthalenesulfonic acid]		50.2 min		
CC(C(=O)O)c1ccc2c(c1)[nH]c1ccc(Cl)cc12 (stereo not drawn) [6-Chlro-α-methyl-carbazole-2-acetic acid, reference compound]		25.6 ± 11.2 min		
COc1ccc2cc[nH]c2c1 [6-Methoxy Indole]	33.5	6.27 min		
COc1ccc2c(C)c(C)[nH]c2c1 [6-Methoxy-2,3-dimethyl Indole]	43.0	23.2 min		
COc1ccc2cc(C(C)=O)ccc2c1 [6-Methoxy-2-acetonaphthone]	15.8			
COc1ccc2c(C(=O)C(N)=O)c[nH]c2c1 [6-Methoxy-3-indoleglyoxylamide]	75.3	30.1 min		

SMILES	Half-Life of ADR Destruction, 100 μM Test Compound [1] [min]	Half-Life of ADR Destruction, 100 μM Test Compound and 0.5 μM Riboflavin [2]	Half-Life of ADR Destruction, 100 μM Test Compound and 0.5 μM Riboflavin [min]	Half-Life of ADR Destruction, 100 μM Test Compound [min]
CCC(=O)c1ccc2cc(OC)ccc2c1 [6-Methoxy-propionaphthone]			27.4	30.1
COc1ccc2c(C(=O)O)cccc2c1 [6-Methoxynaphthalene-1-carboyxlic acid]	18.8	4.49 min		
COc1ccc2cc(CC(=O)O)ccc2c1 [6-Methoxynaphthalene-2-acetic acid]	17.7	5.38 min		
COc1ccc2cc(C#N)ccc2c1 [6-Methoxynaphthalene-2-nitrile]	23.2	20.1 min		
Cc1ccc2cc[nH]c2c1 [6-Methyl Indole]		24.2 ± 1.3 min		
CC(=O)c1ccc2cc(C)ccc2c1 [6-Methyl-2-acetonaphthone]	8.85	7.53 min		
Nc1ccc2c(O)cc(S(=O)(=O)O)cc2c1 [7-Amino-4-hydroxy-2-naphthalenesulfonic acid]		30.1 min		
COc1cc2ccc(=O)oc2cc1O [7-Hydroxy-6-methoxycoumarin]	33.5	33.5 min		
COc1cccc2cc[nH]c12 [7-Methoxy Indole]	43.0	7.72 min		
COc1ccc2c(CC(=O)O)cc(=O)oc2c1 [7-Methoxycoumarin-4-acetic acid]	14.3	11.6 min		
COc1ccc2ccc(=O)oc2c1 [7-Methoxycoumarin]	20.1	18.8 min		
Cc1cccc2cc[nH]c12 [7-Methyl Indole]		16.7 min		
NC1c2ccccc2-c2ccccc21 [9-Amino Fluorene]	75.3	50.2 min		
O=C(O)C1c2ccccc2-c2ccccc21 [9-Fluorene Carboxylic acid]	50.2	43.0 min		
O=C(O)c1cccc2c1C(=O)c1ccccc1-2 [9-Fluorenone-1-carboxylic acid]	43.0	43.0 min		
O=C(O)c1ccc2c(c1)C(=O)c1ccccc1-2 [9-Fluorenone-2-carboxylic acid]		43.0 min		
O=C(O)c1cccc2c1-c1ccccc1C2=O [9-Fluorenone-4-carboxylic acid]	50.2	43.0 min		
Cn1c2ccccc2c(=O)c2ccccc21 [10-Methyl-9(10H) Acridone]				16.7
COc1ccc2c(c1)c(CC(=O)OCC(=O)O)c(C)n2C(=O)c1ccc(Cl)cc1 [Acemetacin, {[1-(4-Chlorobenzoyl)-5-methoxy-2-methylindole-3-yl]acetoxy} acetic acid, reference compound]		4.63 min		
CC(=O)c1ccccc1 [Acetophenone]	43.0	43.0 min		

— patent US20010056085A1, “Methods of using vesicant drug formulations” (priority 1996, published 2001)
